These results are taken from patent US11918667B2, “Zirconium-based cluster as an antiperspirant and deodorant active” (Colgate-Palmolive Company, priority 2017, dated 2024).

Data set [1] in a line: pH of zirconium oxychloride / arginine solutions. The following applies: 1% zirconium oxychloride with varied arginine, 10 g samples, incubated 1 day at 50° C., cooled to room temperature. Type of data set: physicochemical. How it is done:
Samples were prepared according to Table 1. Water was added to zirconium oxychloride (ZrOCl2.8H2O, MW 322.25) in a glass jar to yield a clear solution containing 1% zirconium oxychloride. Under stirring, L-arginine was slowly added to prevent clumping of arginine as well as large fluctuations in localized pH values. The solutions were incubated for 1 day at 50° C. Then the solutions were cooled to room temperature. Solid gel was formed in samples with the molar ratio of arginine to zirconium oxychloride of 2-4.
A 100 g batch was prepared according to Table 2. 1% w/w zirconium oxychloride (ZrOCl2.8H2O, MW 322.25) and arginine were mixed in aqueous solution with the molar ratio of arginine to zirconium oxychloride of 1:1.
The zirconium oxychloride cluster was prepared as described in Example 1. The prepared zirconium oxychloride cluster was purified by gel permeability chromatograph (GPC). GPC column was prepared using Bio-Rad P2 gel with 5 μm particle size. Approximately 10 mL of prepared solution was filtered (0.45 μm) and loaded on the column using a HPLC pump at 0.2 mL/min. The mobile phase of the GPC chromatography was deionized water. Elution fractions were collected in intervals and monitored using SEC-RI. […] The pH of the GPC fraction (1160-1300 min) was 4.5. […] 10 g of this fraction was freeze dried to obtain purified powder for subsequent PXRD analysis.

For data set [2] the following is noted: cited from earlier work.

Bounds are passed on as bounds.

With `[Cl-].[Cl-].[O]=[Zr+2]` [Zr, zirconium oxychloride], the pH in data set [1] amounted to 1.39. In data set [2] (solution of zirconium oxychloride which is effective as an antiperspirant (background)), the pH of solution result is “about 0.8”. Moreover, the pH value in data set [2] (zirconium oxychloride alone (general statement)) is reported as under 2.
